Data published in patent publication US8067432B2, “Liposomal, ring-opened camptothecins with prolonged, site-specific delivery of active drug to solid tumors” (University of Kentucky Research Foundation, priority 2008, dated 2011).

Key:
[1] = compared with FDA approved camptothecin analogs (e.g., Camptosar and Hycamtin); cited from earlier work
[2] = Lactone/carboxylate equilibrium in aqueous solution at physiological pH; assay type: physicochemical; conditions: physiological pH (7.4)
[3] = Lactone/carboxylate form and lactone half-life in plasma; assay type: in vitro ADME, rat

Structure (SMILES) | Potency in in vitro cytotoxicity assays [1] | Fraction in the carboxylate form [2] | Fraction in lactone (active) form ([3]; in plasma) | half-life ([3]; rat plasma)
CC[C@@]1(O)C(=O)OCc2c1cc1n(c2=O)Cc2c-1nc1ccc(O)cc1c2[Si](C)(C)C(C)(C)C [DB-67, 7-t-butyldimethylsilyl-10-hydroxycamptothecin] | at least comparable potency |  |  | 
CC[C@@]1(O)C(=O)OCc2c1cc1n(c2=O)Cc2cc3ccccc3nc2-1 [camptothecin] |  | approximately 70% | ~30% | ~40 min
